Laboratory results from US20200237800A1, “METHODS AND COMPOSITIONS FOR THE TREATMENT OF INFLAMMATORY DISEASE” (THE BRIGHAM AND WOMEN'S HOSPITAL, INC., priority 2017, published 2020).
Strand notation (5' to 3'): a small letter for the sugar, then the base; units joined by * are phosphorothioate-linked, units joined directly phosphodiester-linked; [ ] holds rarer units or linkages, { } end groups; capitals alone tell only the bases. d = 2'-deoxy (DNA); m = 2'-O-methyl; r = 2'-OH (RNA)

Assays:
[1] = system: human PBMC-derived macrophages; assay: Cytokine/chemokine mRNA (RT-PCR) and protein (ELISA) in LPS-activated human PBMC-derived macrophages after lnc-FAM164A1 silencing; format: cell-based; details: for TNF-α mRNA: FIG. 11E
Description: (§1) Silencing of lnc-FAM164A1 by antisense and si-RNA oligonucleotides on human PBMC-derived macrophages. Lnc-FAM164A1 RNA silencing was performed on human PBMC-derived macrophagesas using SilenceMag (BOCA Scientific, Boca Raton, Fla.) at final concentration of 50-100 nM.32 36-48 hours after transfection, macrophages were stimulated by 10 ng/mL LPS for 2-6 hours before collection of macrophages and cell culture medium. Anti-sense LNATM long RNA GepmeR oligonucleotides target lnc-FAM164A1 (Sequence 5′-GGTAAGAAATAGGTTG-3′(SEQ ID NO: 52)) and nonspecific negative control oligonucleotides (Sequence 5′-AACACGTCTATACGC-3′(SEQ ID NO: 53)) were designed by Exiqon A/S (Vedbaek, Denmark). Si-RNA Oligonucleotides targeting lnc-FAM164A1 and luciferase control siRNA oligos were designed by Axolabs (Kulmback, Germany). Their sequences and chemical modifications are as follows (A, G, U, C: RNA nucleotide; a, g, u, c: 2′-O-methyl-nucleotide, s: Phosphorothioate, dT: desoxy-T residue): Luciferase control siRNA (XD-00194): Sense strand: 5′-cuuAcGcuGAGuAcuucGAdTsdT-3′ (SEQ ID NO: 54); Antisense strand: 5′-UCGAAGuACUcAGCGuAAGdTsdT-3′ (SEQ ID NO: 4). Lnc-FAM164A1 specific siRNA oligo#5 (XD-05325): 5′-ucAccAuuAucuucAuAcudTsdT-3′(SEQ ID NO: 5) Antisense strand: 5′-AGuAUGAAGAuAAUGGUGAdTsdT-3′ (SEQ ID NO: 6). Lnc-FAM164A1 specific siRNA oligo#8 (XD-05328): 5′-uguGcuAAAAuAcuGAGAudTsdT-3′ (SEQ ID NO: 7); Antisense strand: 5′-AUCUcAGuAUUUuAGcAcAdTsdT-3′ (SEQ ID NO: 8).
(§2) RNA extraction and RT-PCR. Total RNA were extracted using an Illustra RNAspin Mini kit (GE Healthcare, Piscataway, N.J.) and the genomic DNA was removed by on-column DNase I digestion at RT for 15 minutes. cDNAs were synthesized using a high capacity cDNA reverse transcription kit (Applied Biosystems, Carlsbad, Calif.). Real-time PCR was performed on a 7900HT fast real-time PCR system (Applied Biosystems). Taqman probe and primers for lnc-FAM164A1 were designed by Integrated DNA Technologies and listed as follows: Probe: 5′-/56-FAM/ATGG CCTCA/ZEN/GTTAGGACTGCTTGG/3IABkFQ/-3′ (SEQ ID NO: 9); Primer1: 5′-GATGGGTGC TGGGAGTATAAG-3′ (SEQ ID NO: 10); Primer2: 5′-[…]-3′ (SEQ ID NO: 11). Other Taqman probes for IL-1β, IL-6, IL-10, CCL2, TNF-α, and GAPDH was purchased from Life Technologies. Relative expression of each gene was normalized by GAPDH.
ELISA. Duoset ELISA kits (R&D systems, Minneapolis, Minn.) were used to detect the levels of cytokines (human and mouse CCL2, IL-6, TNF-α) in culture medium from macrophages or mouse plasma.

lnc-FAM164A1 = assay: Silencing of lnc-FAM164A1 by antisense and si-RNA oligonucleotides on human PBMC-derived macrophages (RT-PCR); format: cell-based; details: for potency of silencing of lnc-FAM164A1: compared among 10 different siRNA oligonucleotides in human macrophages
Description: as §1
RNA extraction and RT-PCR. Total RNA were extracted using an Illustra RNAspin Mini kit (GE Healthcare, Piscataway, N.J.) and the genomic DNA was removed by on-column DNase I digestion at RT for 15 minutes. cDNAs were synthesized using a high capacity cDNA reverse transcription kit (Applied Biosystems, Carlsbad, Calif.). Real-time PCR was performed on a 7900HT fast real-time PCR system (Applied Biosystems). […]

NF-κB signaling = assay: NF-κB inhibitor pretreatment of LPS-stimulated PBMC-derived macrophages (RT-PCR); format: cell-based, human; details: 3-30 μM, dose-dependent; 30 minutes pretreatment, 10 ng/mL LPS 6 hours
Description: FIGS. 10A and 18B. (FIG. 10A) Time course of lnc-FAM164A1 and cytokines expression in LPS-stimulated PBMC-derived macrophages. Human PBMC-derived macrophages were stimulated with 10 ng/mL LPS for 6, 12 and 24 hours. Lnc-FAM164A1 RNA, IL-1β, IL-6 and TNF-α mRNA expression were determined by RT-PCR and normalized by GAPDH expression. (Representative results of 2 different donors). […] Human PBMC-derived macrophages were pretreated with 3-30 μM […] for 30 minutes before the stimulation with 10 ng/mL LPS for 6 hours. Lnc-FAM164A1 RNA, IL-1β, IL-6 and TNF-α mRNA expression were determined by RT-PCR and normalized by GAPDH expression (Representative data from 2 different donors).
as §2, with “Other Taqman probes for IL-1β, IL-6, IL-10, CCL2, TNF-α, and GAPDH was purchased from Life Technologies. Relative expression of each gene was normalized by GAPDH.” left out

[2] = system: human PBMC-derived macrophages; assay: Induction of lnc-FAM164A1 expression in human PBMC-derived macrophages (RT-PCR); format: cell-based; details: 10 ng/mL cytokine, 3 hours
Description: FIGS. 1A-1E show LPS treatment increases the expression of lnc-FAM164A1 in human macrophages, PBMCs and white blood cells in humanized Hu-CD34 NSG mice. […] Human PBMC-derived macrophages were stimulated with 10 ng/mL LPS for 3h or 6h (FIG. 1B, P<0.05 LPS vs control; n=5-6 different donors). Human PBMC was isolated from citrated whole blood derived stimulated with 10 ng/mL LPS for 6 hours ex vivo (FIG. 1C, P<0.05 LPS vs control; n=3-4 different donors). Hu-CD34 NSG mice were stimulated with 5 mg/kg of LPS for 6 hours (FIG. 1D, P<0.05, NSG control vs NSG +LPS, n=4 mice per group). Relative fold change of the lnc-FAM164A1 expression was determined by RT-PCR (FIGS. 1B-1D). […]
FIG. 9A-9C show human PBMC-derived macrophages were stimulated with 10 ng/mL human IL-6 and TNF-α for 3 hours. Relative fold change of the lnc-FAM164A1 expression was determined by RT-PCR (P<0.05 LPS vs control; n=3-4 different donors) (FIG. 9A). […] Expression of lnc-FAM164A1 RNA in liver, spleen and lung isolated from the endotoxemic mice was determined by RT-PCR (P<0.05, Spleen vs Lung; n=4 mice per group) (FIG. 9B). […] Lnc-FAM164A1 RNA, IL-1β and GAPDH mRNA expression were determined by RT-PCR and shown as the ratio of nuclear/cytoplasmic in unstimulated macrophages (Left Panel) and LPS-treated macrophages (Right Panel) (n=2 different donors). […]

[3] = LPS-stimulated human macrophages

Row | Compound | LPS-induced CCL2 mRNA expression and protein release [1, 3] | LPS-induced IL-6 mRNA expression and protein release [1, 3] | TNF-α mRNA [1, 3] | potency of silencing of lnc-FAM164A1 (lnc-FAM164A1) | lnc-FAM164A1 expression [2] | also measured
1 | 5′-GGTAAGAAATAGGTTG-3′ (LNA gapmer, pattern and linkages not given here) [anti-sense oligonucleotides] | significant suppressed | significant suppressed |  |  |  | LPS-induced TNF-α mRNA expression and protein release [1, 3]: significant suppressed; expression of anti-inflammatory cytokine IL-10 ([1]; control and LPS-treated macrophages): no changes; silencing efficacy of lnc-FAM164A1 (lnc-FAM164A1; human macrophages, FIG. 11A): at least 50%
2 | 5′-ucAccAuuAucuucAuAcudTsdT-3′ (sense mUmCrAmCmCrAmUmUrAmUmCmUmUmCrAmUrAmCmUdT*dT; antisense rArGmUrArUrGrArArGrAmUrArArUrGrGrUrGrAdT*dT; siRNA) [#5] | decreased expression | decreased expression | No significant change | higher potency of silencing than the others |  | 
3 | 5′-uguGcuAAAAuAcuGAGAudTsdT-3′ (sense mUmGmUrGmCmUrArArArAmUrAmCmUrGrArGrAmUdT*dT; antisense rArUrCrUmCrArGmUrArUrUrUmUrArGmCrAmCrAdT*dT; siRNA) [#8] | decreased expression | decreased expression | No significant change | higher potency of silencing than the others |  | 
4 | Cc1ccc(S(=O)(=O)/C=C/C#N)cc1 [Bay 11-7802] |  |  |  |  |  | transcription of cytokines (IL-1β, IL-6 and TNF-α mRNA) (NF-κB signaling): blocks the transcription; transcription of lnc-FAM164A1 (NF-κB signaling): blocks the transcription
5 | IL-6: human IL-6, pro-inflammatory cytokine used as stimulus at 10 ng/mL |  |  |  |  | increased the expression | 
6 | TNF-α |  |  |  |  | increased the expression | 
